Test results reported in PMC10764104, “Discovery of Molecular Glue Degraders via Isogenic Morphological Profiling” (ACS Chemical Biology, 2023).

Target: T1, GSPT2 G566N (Homo sapiens, UniProt Q8IYD1, G566N)
T1 construct: expressed in transfected cells; host or cells: RKO cells, lentiviral transduction, puromycin-selected
Assay: Western blot (HA-tag) of G-loop mutant GSPT2 in RKO cells
Assay type: cell-based
Conditions: RKO cells stably overexpressing HA-GSPT2 G566N, 16 h; 10 μM FL2-14 or 10 nM CC-885
Description: Figure 3 FL2-14 is a selective GSPT2 molecular glue degrader. (A) Structure of FL2-14 comprising fluorosulfate scaffold FL2 (black) and tail group modification 14 (blue). (B) DMSO-normalized quantitative proteomics after 16 h of treatment with FL2-14 (10 μM) in RKO WT (n = 2). […] (C) Structural alignment of AlphaFold models of GSPT1 (AF-P15170-F1-model_v4 in gray) and GSPT2 (AF-Q8IYD1-F1-model_v4 in blue). (D) Validation of GSPT2 degradation by FL2-14. […] (E) Dose–response of FL2-14 in RKO and HEK293T cells. Cells were treated with the FL2-14 (0 to 10 μM) for 16 h. (F) Degradation of GSPT2^WT or GSPT2^G566N.
Prediction of the G‐loop degron sequence in GSPT2
We first compiled all CRBN degron sequences with known crystal structures (Table S 2). We subsequently discarded 6UML as its degron sequence included an alanine instead of the typical glycine observed in the seventh amino acid residue of other degron sequences, leaving six degron sequences. We then scanned the latest AlphaFold structure of GSPT215 for a potential stretch of 10 amino acids that would align best with each degron sequence. We yielded the same stretch of amino acid residues from position 560 to 569 ([…]) and RMSD values under 0.5 Å.
Table S 2: List of crystal structures used for the computational prediction of the G‐loop degron sequence […]
PDB code Resolution (Å) Chain Segment Sequence Reference
Analysis of G‐loop mutation […]

T1 sequence (Q8IYD1 whole entry G566N): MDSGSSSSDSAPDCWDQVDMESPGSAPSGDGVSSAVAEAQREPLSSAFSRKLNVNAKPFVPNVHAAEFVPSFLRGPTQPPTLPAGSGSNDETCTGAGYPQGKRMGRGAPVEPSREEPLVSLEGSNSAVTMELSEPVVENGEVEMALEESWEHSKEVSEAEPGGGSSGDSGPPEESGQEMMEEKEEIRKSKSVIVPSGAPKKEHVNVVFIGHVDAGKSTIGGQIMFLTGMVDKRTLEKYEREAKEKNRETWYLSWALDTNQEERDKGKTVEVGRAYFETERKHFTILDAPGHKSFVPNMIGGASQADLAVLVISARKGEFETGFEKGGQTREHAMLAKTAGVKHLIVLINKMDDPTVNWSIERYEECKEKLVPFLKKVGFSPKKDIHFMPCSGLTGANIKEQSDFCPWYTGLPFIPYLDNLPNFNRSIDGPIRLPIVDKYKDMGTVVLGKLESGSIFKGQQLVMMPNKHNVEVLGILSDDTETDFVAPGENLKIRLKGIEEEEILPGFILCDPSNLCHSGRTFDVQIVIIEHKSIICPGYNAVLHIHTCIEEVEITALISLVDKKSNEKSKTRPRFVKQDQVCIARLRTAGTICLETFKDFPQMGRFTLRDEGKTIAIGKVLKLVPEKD

degradation of HA-tagged GSPT2 G566N (glycine of G-loop replaced by asparagine): rescued degradation of GSPT2
Structure (SMILES): Cc1ccc(NC(=O)NCc2ccc3c(c2)CN(C2CCC(=O)NC2=O)C3=O)cc1Cl (stereo not shown) [CC-885, reference compound]
